# Like-named read-outs stand apart in the source and are kept apart here.
# Target: recombinant human SYK (GST-hSYK fusion protein) (Homo sapiens, UniProt P43405)
# [1] = read-out: rhSYK Activity, Table 33-A
# [2] = read-out: rhSYK Activity, Table 113B
# [3] = read-out: rhSYK Activity (IC50), recombinant human GST-SYK 5 pM, ATP 25 μM, biotinylated substrate peptide 250 nM, HTRF, 10-dose titration
# [4] = read-out: rhSYK Activity, Table 33C
# [5] = read-out: rhSYK Activity, Table 113A
# [6] = read-out: rhSYK Activity, Table 54D
# [7] = read-out: rhSYK Activity, Table 33B
# [8] = read-out: rhSYK Activity, Table 54B
# From the text: Homogeneous Time-Resolved Fluorescence (HTRF) Assay for the Recombinant Human SYK Enzyme:
smiles,measurement,setting,value
Cc1cc(Nc2nccc(C(F)(F)F)n2)cc(-c2cnc(C3(O)CCC(CCC(=O)O)CC3)s2)c1 (stereo not shown) [Example 33A-20],IC50,[1],< 100 nM
Cc1cc(Nc2nccc(C)n2)cc(-c2cnc(C3(O)CC(C)C(C(=O)O)CC3C)s2)c1 (stereo not shown) [Example 113B-5],IC50,[2],< 100 nM
Cc1cc(Nc2nccc(O[C@@H]3CCNC3)n2)cc(-c2cnc(C(C)(O)C(F)(F)F)s2)c1 (stereo partly shown) [Example 94B-8],IC50,[3],< 100 nM
Cc1cc(Nc2nccc(C)n2)cc(-c2cnc(C3(O)CC4CCC3CC4C(=O)O)s2)c1 (stereo not shown) [Example 33C-19],IC50,[4],< 100 nM
Cc1cc(Nc2nccc(C)n2)cc(-c2cnc(C3(O)CCC(C(=O)O)CC3O)s2)c1 (stereo not shown) [Example 113A-91],IC50,[5],< 100 nM
"Cc1cc(Nc2nccc(C(F)(F)F)n2)cc(-c2cnc(C3(O)CC[C@H]4C(C(=O)O)[C@H]43)s2)c1 (single isomer, unassigned) [Example 33C-7]",IC50,[4],< 100 nM
"COC(=O)C1CCC(O)(c2ncc(-c3cc(CO)cc(Nc4nccc(C(F)(F)F)n4)c3)s2)CC1(C)C (single isomer, unassigned) [Example 33A-52]",IC50,[1],< 100 nM
"COc1ccnc(Nc2cc(C)cc(-c3cnc(C4(O)CCC(C(=O)O)C(C)(C)C4)s3)c2)n1 (single isomer, unassigned) [Example 33A-73]",IC50,[1],< 100 nM
"Cc1cc(Nc2nccc(C(F)(F)F)n2)cc(-c2cnc(C3(O)CCCN(C(=O)C(O)CO)CC3)s2)c1 (single isomer, unassigned) [Example 54D-29]",IC50,[6],< 100 nM
"CC1(C)CC(O)(c2ncc(-c3cc(F)cc(Nc4nccc(C(F)(F)F)n4)c3)s2)CCC1C(=O)O (single isomer, unassigned) [Example 33A-64]",IC50,[1],< 100 nM
Cc1cc(Nc2nccc(C)n2)cc(-c2cnc(C3(O)CCC(C(=O)O)C(C(C)C)C3)s2)c1 (stereo not shown) [Example 33B-36],IC50,[7],< 100 nM
CCOC(=O)C1[C@H]2CC(O)(c3ncc(-c4cc(C)cc(Nc5nccc(C(F)(F)F)n5)c4)s3)C[C@@H]12 (stereo partly shown) [Example 33C-12],IC50,[4],< 100 nM
"Cc1cc(Nc2nccc(C(F)(F)F)n2)cc(-c2cnc(C3(O)CCCN(C(=O)Cn4ccnn4)CC3)s2)c1 (single isomer, unassigned) [Example 54D-53]",IC50,[6],< 100 nM
Cc1cc(Nc2nccc(C(F)(F)F)n2)cc(-c2cnc(C(C)(O)c3ccc(C(=O)O)cn3)s2)c1 (stereo not shown) [Example 113D-6],IC50,"read-out: rhSYK Activity, Table 113D, upper part",< 100 nM
Cc1cc(Nc2nccc(C(F)(F)F)n2)cc(-c2cnc(C3(O)CCCC(C(=O)O)C(C)(C)C3)s2)c1 (stereo not shown) [Example 33B-8],IC50,[7],< 100 nM
Cc1cc(Nc2nccc(C(F)(F)F)n2)cc(-c2cnc(C(=O)NC[C@@H](O)CO)s2)c1 [Example 87A-4],IC50,[3],< 100 nM
Cc1cc(Nc2nccc(C(F)(F)F)n2)cc(-c2cnc(C3(O)CCN(C(N)=O)C3)s2)c1 (stereo not shown) [54B-3],IC50,[8],< 100 nM
Cc1cc(Nc2ncc(Cl)c(C)n2)cc(-c2cnc([C@]3(O)CC[C@@H](C(=O)O)C(C)(C)C3)s2)c1 [116A-26],IC50,"read-out: rhSYK Activity, Table 116A",< 100 nM
Cc1cc(Nc2nccc(C)n2)cc(-c2cnc(C3(O)CCC(CC(=O)O)CC3)s2)c1 (stereo not shown) [Example 33A-33],IC50,[1],< 100 nM
Cc1cc(Nc2nccc(C(F)(F)F)n2)cc(-c2cnc(C3(O)CCC(CCC(=O)O)CC3)s2)c1 (stereo not shown) [Example 33A-19],IC50,[1],< 100 nM
COC(=O)C1CCC(c2ncc(-c3cccc(Nc4nccc(C(F)(F)F)n4)c3)s2)CC1 (stereo not shown) [Example 36A-5],IC50,"read-out: rhSYK Activity, Table 36A",100 to 1000 nM
"Cc1cc(Nc2nccc(C(F)(F)F)n2)cc(-c2cnc(C3(O)CCCN(C(=O)Cc4nnn[nH]4)CC3)s2)c1 (single isomer, unassigned) [Example 54D-60]",IC50,[6],< 100 nM
Cc1cc(Nc2nccc(OC3CNC3)n2)cc(-c2cnc(C3(O)CCC3)s2)c1 [Example 94A-28],IC50,[3],< 100 nM
Cc1cc(Nc2nccc(OC3CCNCC3F)n2)cc(-c2cnc(C(C)(O)C(F)(F)F)s2)c1 (stereo not shown) [Example 94B-7],IC50,[3],< 100 nM
"Cc1cc(Nc2nccc(C(F)(F)F)n2)cc(-c2cnc(C3CCC(C(N)=O)C(C)(C)C3)s2)c1 (single isomer, unassigned) [154(d), 2,2-Dim ethyl-4-[5-(3-methyl-5-{[4-(trifluoromethyl)pyrimidin-2-yl]amino}phenyl)-1,3-thiazol-2-yl]cyclohexanecarboxamide]",IC50,[3],< 100 nM
Cc1cc(Nc2nccc(C(F)(F)F)n2)cc(-c2cnc(C3(O)CC(C)C(C(=O)O)CC3C)s2)c1 (stereo not shown) [Example 113B-16],IC50,[2],< 100 nM
"Cc1cc(Nc2nccc(C(F)C3CC3)n2)cc(-c2cnc(C3(O)CCC(C(=O)O)C(C)(C)C3)s2)c1 (single isomer, unassigned) [Example 100A-22]",IC50,[3],< 100 nM
"Cc1cc(Nc2nccc(C(F)(F)F)n2)cc(-c2cnc(C3(O)CCCN(C(=O)c4cnnn4C)CC3)s2)c1 (single isomer, unassigned) [Example 54D-51]",IC50,[6],< 100 nM
"Cc1cc(Nc2nccc(C(F)(F)F)n2)cc(-c2cnc(C3(O)CCNC(=O)CC3O)s2)c1 (single isomer, unassigned) [161(D), 4,5-dihydroxy-5-[5-(3-methyl-5-{[4-(trifluoromethyl)pyrimidin-2-yl]amino}phenyl)-1,3-thiazol-2-yl]azepan-2-one]",IC50,[3],< 100 nM
Cc1cc(Nc2nccc(OC3CCCNCC3)n2)cc(-c2cnc(C3(O)CCC3)s2)c1 (stereo not shown) [Example 108A-10],IC50,"read-out: rhSYK Activity, Table 108A",< 100 nM
Cc1cc(Nc2nccc(C(F)(F)F)n2)cc(-c2cnc(C(=O)NCC(O)CO)s2)c1 (stereo not shown) [Example 87A-3],IC50,[3],< 100 nM
Cc1cc(Nc2nccc(C)n2)cc(-c2cnc(C3(O)CCC(C(=O)O)CC3C)s2)c1 (stereo not shown) [Example 113A-85],IC50,[5],< 100 nM
Cc1cc(Nc2nccc(C)n2)cc(-c2cnc(C3(O)CC(C)C(C(=O)O)CC3C)s2)c1 (stereo not shown) [Example 113B-6],IC50,[2],< 100 nM
"Cc1cc(Nc2nccc(C(F)(F)F)n2)cc(-c2cnc(C3(O)CCC(CC(=O)O)C3)s2)c1 (single isomer, unassigned) [Example 33B-28]",IC50,[7],< 100 nM
Cc1cc(Nc2nccc(C)n2)cc(-c2cnc(C3(O)CCC(C(=O)O)CC3C)s2)c1 (stereo not shown) [Example 113A-83],IC50,[5],< 100 nM
Cc1cc(Nc2nccc(C)n2)cc(-c2cnc(C3(O)CCC(C(=O)O)C(C)(C)C3)s2)c1 (stereo not shown) [Example 33A-68],IC50,[1],< 100 nM
"Cc1cc(Nc2nccc(C(F)(F)F)n2)cc(-c2cnc(C3(O)CCC(CC(=O)O)C3)s2)c1 (single isomer, unassigned) [Example 33B-26]",IC50,[7],< 100 nM
CC1(C)CC(O)(c2ncc(-c3cc(CO)cc(Nc4nccc(C(F)(F)F)n4)c3)s2)CCC1C(=O)O (stereo not shown) [Example 33A-53],IC50,[1],< 100 nM
Cc1cc(Nc2nccc(C)n2)cc(-c2cnc(C3(O)CCC(C(=O)O)CC3C)s2)c1 (stereo not shown) [Example 113A-86],IC50,[5],< 100 nM
Cc1ccnc(Nc2cc(-c3cnc(C4(O)CCC(C(=O)O)C(C)C4)s3)cc(C3CC3)c2)n1 (stereo not shown) [Example 113A-24],IC50,[5],< 100 nM
Cc1cc(Nc2nccc(C(F)(F)F)n2)cc(-c2cnc(C3(O)CCC(C(=O)O)C(C)(C)C3C)s2)c1 (stereo not shown) [Example 33A-76],IC50,[1],< 100 nM
Cc1cc(Nc2nccc(C(F)(F)F)n2)cc(-c2cnc(C3(O)CC(C)C(C(=O)O)CC3C)s2)c1 (stereo not shown) [Example 113B-13],IC50,[2],< 100 nM
Cc1cc(Nc2ncc(F)c(C3CC3)n2)cc(-c2cnc(C3(O)CCC(C(=O)O)C(C)(C)C3)s2)c1 (stereo not shown) [Example 33A-41],IC50,[1],< 100 nM
Cc1cc(Nc2nccc(C(F)(F)F)n2)cc(-c2cnc(C3(O)CCC(C(=O)O)CC3)s2)c1 (stereo not shown) [Example 33A-6],IC50,[1],< 100 nM
Cc1cc(Nc2nccc(C)n2)cc(-c2cnc(C3(O)CCC(C(=O)O)CC3C)s2)c1 (stereo not shown) [Example 113A-81],IC50,[5],< 100 nM
Cc1cc(Nc2nccc(C(C)C)n2)cc(-c2cnc(C3(O)CCCN(C(=O)C(C)O)CC3)s2)c1 (stereo not shown) [Example 54D-3],IC50,[6],< 100 nM
Cc1cc(Nc2nccc(C(F)(F)F)n2)cc(-c2cnc(C(=O)N3CC(O)CC3C(=O)O)s2)c1 (stereo not shown) [Example 87B-24],IC50,[3],< 100 nM
Cc1cc(Nc2nccc(C)n2)cc(-c2cnc(C3(O)CCN(C(N)=O)C3)s2)c1 (stereo not shown) [54B-15],IC50,[8],< 100 nM
COC(=O)[C@H]1C[C@@H](O)CN1C(=O)c1ncc(-c2cc(C)cc(Nc3nccc(C(F)(F)F)n3)c2)s1 [Example 87B-23],IC50,[3],< 100 nM
Cc1cc(Nc2nccc(C)n2)cc(-c2cnc(C3(O)CCC(C(=O)O)C(C)C3C)s2)c1 (stereo not shown) [Example 113A-69],IC50,[5],< 100 nM
"Cc1cc(Nc2nccc(C(F)(F)F)n2)cc(-c2cnc(C(C)(O)CCC(C)(C)C(=O)O)s2)c1 (single isomer, unassigned) [Example 33D-2]",IC50,"read-out: rhSYK Activity, Table 33D",< 100 nM
COCCOc1ccnc(Nc2cc(C)cc(-c3cnc(C4(O)CCC(C(=O)O)C(C)C4)s3)c2)n1 (stereo not shown) [Example 113A-39],IC50,[5],< 100 nM
"Cc1cc(Nc2nccc(C(F)(F)F)n2)cc(-c2cnc(C3(O)CCCN(C(=O)c4nn[nH]c4C(F)(F)F)CC3)s2)c1 (single isomer, unassigned) [Example 54D-108]",IC50,[6],< 100 nM
"Cc1cc(Nc2nccc(C(F)(F)F)n2)cc(-c2cnc([C@]3(O)CCC(=O)NC[C@H]3O)s2)c1 (relative stereo) [161(A), [cis]5,6-dihydroxy-5-[5-(3-methyl-5-{[4-(trifluoromethyl)pyrimidin-2-yl]amino}phenyl)-1,3-thiazol-2-yl]azepan-2-one]",IC50,[3],< 100 nM
"Cc1cc(Nc2nccc(C(F)(F)F)n2)cc(-c2cnc(C3CCC(C(N)=O)C(C)(C)C3)s2)c1 (single isomer, unassigned) [154(c), 2,2-Dim ethyl-4-[5-(3-methyl-5-{[4-(trifluoromethyl)pyrimidin-2-yl]amino}phenyl)-1,3-thiazol-2-yl]cyclohexanecarboxamide]",IC50,[3],< 100 nM
Cc1cc(Nc2nccc(C(F)(F)F)n2)cc(-c2cnc(C3(O)CC(C)C(C(=O)O)CC3C)s2)c1 (stereo not shown) [Example 113B-15],IC50,[2],< 100 nM
Cc1cc(Nc2nccc(C)n2)cc(-c2cnc(C3(O)CCC(C(=O)O)C(C)C3)s2)c1 (stereo not shown) [Example 113A-5],IC50,[5],< 100 nM
"Cc1cc(Nc2nccc(C(F)(F)F)n2)cc(-c2cnc(C3(O)CC[C@H]4C(C(=O)O)[C@H]43)s2)c1 (single isomer, unassigned) [Example 33C-8]",IC50,[4],< 100 nM

# Reference: patent US8551984B2, “Aminopyrimidines as SYK inhibitors” (Merck Sharp & Dohme Corp., priority 2009, dated 2013)
